According to patent publication US8501722B2, “Methods and compositions for treating bacterial infection” (priority 2009, dated 2013):
Values joined by “and” are separate entries in the source; they are usually repeats but may differ in a detail not shown here. Identical values can stand only once. Like-named read-outs stand apart in the source and are kept apart here.

Legend:
[1] = system: SK(+)GAS (UMAA2616); experiment: Survival of human plasminogen transgenic (Tg+) mice infected with GAS; type: in vivo; conditions: UMAA2616 infection; 575096 5 μg per day, 1S-22207 30 μg per day, intraperitoneally daily for 5 days, starting one day after infection
Method: To examine the in vivo efficacy of compounds CCGC, CCGE, and CCGF, Tg+ mice were first infected with 6*10^5 CFU SK(+)GAS, then injected with 5 μg of test compound per mouse intraperitoneally daily for 5 days, starting one day after infection. […] In some embodiments, small compound are delivered continuously through an ALZET® Osmotic Pump (DURECT Corporation, Cupertino, Calif.).
Tg+ mice are then used to test the efficacy of compounds in attenuating the virulence of GAS infection. 20 Tg+ mice are infected with 10^5 CFU of SK(+)GAS then injected with the estimated experimental doses of the compounds two hours later. Survival is monitored for 9 days, while a control group of Tg+ mice will be infected with SK(+)GAS injected with DMSO. The comparison of mortalities between the two groups is analyzed as described above in the toxicity test. Treating mice with compound post-infection helps avoid potential side-effects of toxic or growth inhibition of compound on SK(+)GAS at the time of infection. As a result, the effect of compound on mice survival is a more authentic reflection of the efficacy of compound on inhibiting GAS virulence. Possible scenarios include:
This example describes the in vivo efficacy of compound 575096. Human plasminogen transgenic mice (Tg+) were first infected with 10^5″^6 CFUUMAA2616, then injected with 5-30 lag of test compound per mouse intraperitoneally daily for 5 days, starting one day after infection.

[2] = system: SK(+)GAS; experiment: GAS growth by OD600 nm of culture; type: cell-based, Group A Streptococcus; conditions: for activity at 0.1 µg/mL: read-out: GAS Growth (% control), compound conc. 0.1 μg/ml; for activity at 0.3 µg/mL: read-out: GAS Growth (% control), compound conc. 0.3 μg/ml; for activity at 2.5 µg/mL: read-out: GAS Growth (% control), compound conc. 2.5 μg/ml; for activity at 5 µg/mL: read-out: GAS Growth (% control), compound conc. 5 μg/ml; for activity at 10 µg/mL: read-out: GAS Growth (% control), compound conc. 10 μg/ml; for activity at 20 µg/mL: read-out: GAS Growth (% control), compound conc. 20 μg/ml; for activity at 40 µg/mL: read-out: GAS Growth (% control), compound conc. 40 μg/ml; for activity at 70 µg/mL: read-out: GAS Growth (% control), compound conc. 70 μg/ml; for activity at 30 µg/mL: read-out: GAS Growth (% control), compound conc. 30 μg/ml; for activity at 50 µg/mL: read-out: GAS Growth (% control), compound conc. 50 μg/ml
[3] = system: streptokinase (SK)
Method: SK− Ecoli and SKCtr1's dose response relationship with these compounds were then examined.
The effects of 10 hit compounds out of the 23 identified were further tested by dose response assays. […] These compounds were tested for inhibition of ska expression by measuring SK activity in supernatants of GAS exposed to the test compound or control vehicle alone (DMSO). SK(+)GAS were cultured with hit compounds at a dose range of 10 nM to 100 μM at 37° C. for 16-20 hours. Supernatants of SK(+)GAS cultures were measured for SK activity using chromogenic substrate 2403 (Diapharma group Inc., West Chester, Ohio), according to the manufacturer's instruction and simultaneously monitored for nonspecific effects on GAS growth by measuring OD600 nm.
The positive compounds identified in dose response assays are subjected to SK assay to identify compounds inhibiting SK expression in SK(+)GAS. Briefly, SK(+)GAS is grown at the presence of hit compounds at a dose range determined by dose response assays within which SK(−) GAS growth is inhibited less than 10% while SKKanGAS growth is inhibited more than 50% under 20 μg/ml kanamycin.

[4] = system: SKKanGAS; experiment: Growth-based turbidometric screen, SKKanGAS under kanamycin (kanamycin resistance gene under ska promoter); type: cell-based, Group A Streptococcus; conditions: preliminary screening with 2,000 known compounds (The Spectrum Collection)
Text: A GAS strain was generated to have kanamycin resistance gene under the control of ski promoter to be used to screen for SK inhibitors. A transgenic GAS has been generated in SK(+)GAS host so that kanamycin resistance gene is driven by ska promoter in an extrachromosomal plasmid. The engineered GAS strain (SKKanGAS) was also kanamycin resistant. This kanamycin resistance gene in SK(−)GAS strain is within the omega-Km2 element whose promoter is independent of ska promoter (Khil et al., J. Infect. Dis. 2003; 188:497-505; Ringdahl et al., J. Biol. Chem. 1998; 273:6424-6430). As a result, SK(−)GAS can serve as a control in the screen for SK promoter to weed out compounds that inhibit GAS growth or interfere with kanamycin resistance protein function. […] A cutoff criterion was set to select compounds that can inhibit 50% growth in SKKanGAS while inhibiting less than 10% growth in SK(−)GAS. A total of 95 compounds met this criterion. As a result, these compounds were chosen for dose response assays and pIC50 of growth inhibition of each hit compound was then estimated. […] An example is given as FIG. 10.
Only SKKanGAS is used for screening in the primary screening. Briefly, 30 μl THY medium containing 20 μg/ml kanamycin is first plated into 384-well plates (384 microtiter plate, Corning #3701) and compounds are added into the wells. SKKanGAS strain is grown to OD600 nm=0.8. SKKanGAS is then diluted 12.5 fold into 20 μg/ml kanamycin THY medium. SKKanGAS mixture (10 μl) is added into each well of the 384-well plates. […] The plates are cultured at 37° C. for 16-20 hours. Growth of bacteria in each well is measured by absorbance at 600 nm. Z′>0.5, which is compatible with high throughput screening, has been typically obtained with the 384-well plate format in which 55,000 small compounds have been screened. […] SKKanGAS is a BSL2 level agent and can be stored at −80° C. SKKanGAS can be cultured at 37° C. in THY or Bill medium which is commercially available (Fisher Scientific, Pittsburgh, Pa.).
Once hit compounds have been identified by the primary screening, they are applied to dose response assays with both SKKanGAS and SK(−)GAS stains. SKKanGAS and SK(−)GAS are grown in 20 μg/ml kanamycin with serial dilution of hit compounds (DMSO final concentration=1% in THY medium). Plates are incubated at 37° C. for 15-20 hours in a climate controlled room (humidity 50%). The absorbance is measured at 600 nm. pIC50 of growth inhibition of each hit compound is then determined. Compounds that with at least 10 fold lower IC50 in SKKanGAS than SK(−)GAS strain are identified and subjected to secondary confirmatory assay. As a result, dose response assay identifies and eliminates most nonspecific compounds that may inhibit GAS growth or interfere with kanamycin resistance protein function.

SMILES | activity at 0.1 µg/mL ([2]; Streptococcus) [%] | activity at 0.3 µg/mL ([2]; Streptococcus) [%] | activity at 2.5 µg/mL ([2]; Streptococcus) [%] | activity at 5 µg/mL ([2]; Streptococcus) [%] | activity at 10 µg/mL ([2]; Streptococcus) [%] | activity at 20 µg/mL ([2]; Streptococcus) [%] | activity at 40 µg/mL ([2]; Streptococcus) [%] | activity at 70 µg/mL ([2]; Streptococcus) [%] | SK Expression (% control) ([3]; compound conc. 0.1 μg/ml) | SK Expression (% control) ([3]; compound conc. 0.3 μg/ml) | SK Expression (% control) ([3]; compound conc. 1.0 μg/ml) | SK Expression (% control) ([3]; compound conc. 3 μg/ml) | SK Expression (% control) ([3]; compound conc. 5 μg/ml) | SK Expression (% control) ([3]; compound conc. 10 μg/ml) | SK Expression (% control) ([3]; compound conc. 20 μg/ml) | SK Expression (% control) ([3]; compound conc. 40 μg/ml) | SK Expression (% control) ([3]; compound conc. 50 μg/ml) | SK Expression (% control) ([3]; compound conc. 70 μg/ml) | other results
C=CCn1c(SCC#N)nc2c(c1=O)C(C)(C)Cc1ccccc1-2 [1S-22207] | 96 | 98 | 100 | 98 | 96 | 99 | 113 | 126 | 103 % control and 108 % control and 97 % control and 95 % control | 103 % control and 104 % control and 95 % control and 108 % control | 102 % control and 108 % control and 99 % control and 77 % control | 62 % control and 46 % control and 83 % control and 47 % control | 64 % control and 49 % control and 80 % control | 39 % control and 38 % control and 29 % control and 33 % control and 34 % control | 31 % control and 27 % control | 22 % control and 25 % control and 40 % control |  |  | survival of Tg+ mice compared to DMSO control group [1]: significant improvement in survival
C=CCn1c(SCCOC)nc2c(c1=O)C(C)(C)c1ccccc1-2 [CCG-203572, 3-allyl-2-(2-methoxyethylthio)-5,5-dimethyl-3H-indeno[1,2-d]pyrimidin-4(5H)-one] | 101 | 101 | 101 | 97 | 97 | 96 | 87 | 96 | 100 % control and 128 % control | 101 % control and 129 % control | 102 % control and 134 % control | 102 % control and 75 % control | 21 % control |  | 10 % control | 9 % control |  |  | GAS Growth (% control) ([2]; compound conc. 0.3 μg/ml): 101 % control
C=CCn1c(SCCOC)nc2c(c1=O)CC(C)c1ccccc1-2 (stereo not drawn) [CCG-203574, 3-allyl-2-(2-methoxyethylthio)-6-methyl-5,6-dihydrobenzo[h]quinazolin-4(3H)-one] |  |  |  | 102 | 95 | 85 | 68 |  |  |  |  |  | 80 % control | 10 % control | 6 % control | 6 % control |  |  | 
C=CCn1c(SCCOC)nc2c(c1=O)C(C)(C)Cc1cc(OC)ccc1-2 [CCG-203576, 3-allyl-8-methoxy-2-(2-methoxyethylthio)-5,5-dimethyl-5,6-dihydrobenzo[h]quinazolin-4(3H)-one] | 102 | 101 | 100 | 99 | 98 | 99 | 101 | 105 | 99 % control and 93 % control | 99 % control and 98 % control | 99 % control and 89 % control | 100 % control and 61 % control | 30 % control |  | 19 % control | 11 % control |  |  | GAS Growth (% control) ([2]; compound conc. 2.5 μg/ml): 100 % control
C=CCn1c(SCc2ccccc2)nc2c(c1=O)C(C)(C)Cc1ccccc1-2 [compound 25203] |  |  | 89 |  | 92 | 100 | 118 | 143 |  |  |  |  |  | 96 % control | 84 % control | 63 % control | 58 % control | 60 % control | activity at 30 µg/mL ([2]; Streptococcus): 110%; activity at 50 µg/mL ([2]; Streptococcus): 125%; activity at 60 µg/mL ([2]; Streptococcus, read-out: GAS Growth (% control), compound conc. 60 μg/ml): 132%; SK Expression (% control) ([3]; compound conc. 2.5 μg/ml): 110 % control; SK Expression (% control) ([3]; compound conc. 30 μg/ml): 70 % control; SK Expression (% control) ([3]; compound conc. 60 μg/ml): 52 % control
C=CCn1c(SCCCC)nc2c(c1=O)C1(CCCCC1)Cc1ccccc1-2 [compound 575096] | 97 | 102 |  | 101 | 102 | 84 |  |  | 77 % control and 83 % control and 95 % control | 108 % control and 95 % control and 127 % control | 65 % control and 69 % control and 84 % control | 61 % control and 62 % control and 69 % control | 50 % control |  |  | 68 % control and 51 % control and 69 % control and 76 % control | 65 % control and 66 % control and 83 % control | 40 % control and 61 % control | survival of Tg+ mice compared to DMSO control group [1]: significant improvement in survival; activity at 1 µg/mL ([2]; Streptococcus, read-out: GAS Growth (% control), compound conc. 1 μg/ml): 102%; activity at 3 µg/mL ([2]; Streptococcus, read-out: GAS Growth (% control), compound conc. 3 μg/ml): 100%
C=CCn1c(SCc2ccccc2)nc2c(c1=O)C1(CCCCC1)Cc1ccccc1-2 [compound 575097] |  |  |  |  | 89 | 88 | 86 |  |  |  |  |  |  | 92 % control and 88 % control | 82 % control and 79 % control | 72 % control and 74 % control | 70 % control and 67 % control | 65 % control | activity at 30 µg/mL ([2]; Streptococcus): 88%; activity at 50 µg/mL ([2]; Streptococcus): 86%; SK Expression (% control) ([3]; compound conc. 30 μg/ml): 79 % control and 77 % control; SK Expression (% control) ([3]; compound conc. 60 μg/ml): 63 % control
CC[C@H]1OC(=O)[C@H](C)[C@@H](O[C@H]2C[C@@](C)(OC)[C@@H](O)[C@H](C)O2)[C@H](C)[C@@H](O[C@@H]2O[C@H](C)C[C@H](N(C)C)[C@H]2O)[C@](C)(O)C[C@@H](C)C(=O)[C@H](C)[C@@H](O)[C@]1(C)O [erythromycin, reference compound] |  |  |  |  |  |  |  |  |  |  |  |  |  |  |  |  |  |  | SKKanGAS growth susceptibility to known antibiotics [4]: susceptible
